Data published in ChEMBL document CHEMBL1201862, “PubChem BioAssay data set” (2004).
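Values below derive from 48-hour exposures of cells grown in 96-well plates, with endpoints linearly interpolated between the two concentrations bracketing the appropriate inhibition level. GI50: concentration for 50% inhibition of growth.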 Active and inactive are the calls of the source. Cut-off read from the data, not from the text of the source: active = GI50 up to about 1.1 µM and inactive = higher.

Assays:
Test in all cases: DTP human tumour cell line panel, 48 h
HOP-62 = tested on: HOP-62
HCC 2998 = tested on: HCC 2998
MDA-MB-231 = tested on: MDA-MB-231
OVCAR-8 = tested on: OVCAR-8
T47D = tested on: T47D
SW-620 = tested on: SW-620
MDA-MB-435 = tested on: MDA-MB-435
OVCAR-3 = tested on: OVCAR-3
SF-295 = tested on: SF-295
UO-31 = tested on: UO-31
NCI-H522 = tested on: NCI-H522
CCRF-CEM = tested on: CCRF-CEM
IGROV-1 = tested on: IGROV-1
OVCAR-4 = tested on: OVCAR-4
CAKI-1 = tested on: CAKI-1
LOX IMVI = tested on: LOX IMVI
COLO 205 = tested on: COLO 205
HL-60 = tested on: HL-60
M14 = tested on: M14
U-251 = tested on: U-251

| Structure (SMILES) | GI50 (HOP-62) | GI50 (HCC 2998) | GI50 (MDA-MB-231) | GI50 (OVCAR-8) | GI50 (T47D) | GI50 (SW-620) | GI50 (MDA-MB-435) | GI50 (OVCAR-3) | GI50 (SF-295) | GI50 (UO-31) | GI50 (NCI-H522) | GI50 (CCRF-CEM) | GI50 (IGROV-1) | GI50 (OVCAR-4) | GI50 (CAKI-1) | GI50 (LOX IMVI) | GI50 (COLO 205) | GI50 (HL-60) | GI50 (M14) | GI50 (U-251) |
| --- | --- | --- | --- | --- | --- | --- | --- | --- | --- | --- | --- | --- | --- | --- | --- | --- | --- | --- | --- | --- |
| CC(=O)C(C(c1ccccc1)N1CCOCC1)N1CCOCC1 (stereo not given) | > 100 µM (inactive) | 20.3 µM (inactive) | > 100 µM (inactive) | > 100 µM (inactive) | > 100 µM (inactive) | > 100 µM (inactive) | > 100 µM (inactive) | > 100 µM (inactive) | > 100 µM (inactive) | > 100 µM (inactive) | > 100 µM (inactive) | 16.9 µM (inactive) | > 100 µM (inactive) | > 100 µM (inactive) | > 100 µM (inactive) | > 100 µM (inactive) | > 100 µM (inactive) | > 100 µM (inactive) | > 100 µM (inactive) | > 100 µM (inactive) |
| Nc1ncc(Cl)c(NCC2(CO)CC(CCc3ccccc3)C2)n1 (stereo not given) | > 100 µM (inactive) | > 100 µM (inactive) | > 100 µM (inactive) | 44 µM (inactive) | 1.07 µM (active) | > 100 µM (inactive) | > 100 µM (inactive) | > 100 µM (inactive) | 5.2 µM (inactive) | > 100 µM (inactive) | > 76.2 µM (inactive) | > 67.8 µM (inactive) | > 100 µM (inactive) | > 100 µM (inactive) | 12 µM (inactive) | 0.785 µM (active) | > 100 µM (inactive) | 1.13 µM (inactive) | > 100 µM (inactive) | 44.6 µM (inactive) |
| CCC(C)C1NC(=O)C(NC(=O)c2c3nc4c(C(=O)NC5C(=O)NC(C(C)CC)C(=O)N6CCCC6C(=O)N(C)CC(=O)N(C)C(C(C)C)C(=O)OC5C)ccc(C)c4oc-3c(C)c(=O)c2O)C(C)OC(=O)C(C(C)C)N(C)C(=O)CN(C)C(=O)C2CCCN2C1=O (stereo not given) | 2.99 µM (inactive) | 3.16 µM (inactive) | 1.25 µM (inactive) | 1.6 µM (inactive) | 2.84 µM (inactive) | 1.09 µM (active) | 4.92 µM (inactive) | 3.24 µM (inactive) | 3.61 µM (inactive) | 10.4 µM (inactive) | 0.295 µM (active) | 0.499 µM (active) | 0.239 µM (active) | 14.3 µM (inactive) | 10.3 µM (inactive) | 0.532 µM (active) | 1.35 µM (inactive) | 2.81 µM (inactive) | 4.2 µM (inactive) | 1.05 µM (active) |
| C=Cc1c(C)c2cc3nc(c4c5[nH]c(cc6nc(cc1[nH]2)C(C)=C6CC)c(C)c5C(=O)C4C(=O)OC)C(CCC(=O)OC)C3C (stereo not given) | > 100 µM (inactive) | 59.7 µM (inactive) | > 100 µM (inactive) | > 100 µM (inactive) | > 100 µM (inactive) | > 100 µM (inactive) | > 100 µM (inactive) | > 100 µM (inactive) | > 100 µM (inactive) | > 100 µM (inactive) | > 100 µM (inactive) | > 100 µM (inactive) | > 100 µM (inactive) | > 100 µM (inactive) | > 100 µM (inactive) | > 100 µM (inactive) | > 100 µM (inactive) | > 100 µM (inactive) | > 100 µM (inactive) | > 100 µM (inactive) |
| CC(=O)C(CN1CCOCC1)C(c1ccccc1)c1c(O)c2ccccc2oc1=O (stereo not given) | > 100 µM (inactive) | > 100 µM (inactive) | 83.9 µM (inactive) | > 100 µM (inactive) | > 100 µM (inactive) | > 100 µM (inactive) | > 100 µM (inactive) | > 100 µM (inactive) | > 100 µM (inactive) | > 100 µM (inactive) | > 100 µM (inactive) | > 100 µM (inactive) | > 100 µM (inactive) | > 100 µM (inactive) | > 100 µM (inactive) | > 100 µM (inactive) | > 100 µM (inactive) | 41.3 µM (inactive) | > 100 µM (inactive) | > 100 µM (inactive) |
